Experimental data published in patent US10352935B2, “Tumor cell-derived microvesicles” (The Hospital for Sick Children, priority 2007, dated 2019).

What was measured:
[1] = test system: Erk1/2 phosphorylation in U373 cells; test: Microvesicle transfer assay, Erk1/2 phosphorylation in U373 acceptor cells; assay type: cell-based, human; conditions: microvesicles preincubated with agent, 24 hours (FIG. 3A, 3B)
Protocol: (§1) U373 (acceptor) cells are treated with microvesicles for 24 hours and a single-cell suspension is analyzed by flow cytometry or fluorescent microscopy for expression of EGFRvIII or GFP. […] The expression of microvesicle associated molecules (EGFRvIII, TF), and expression of total and activated MAPK and Akt as well as other changes are assayed by immunoblot (BcIxL, p27/Kip1), ELISA (VEGF, R&D Systems), or promoter activity assays (VEGF), as described elsewhere (Lopez-Ocejo et al. 2000, Oncogene, 40:4611-4620): For soft agar colony formation assays single cell suspensions are prepared in 0.3% agarose from equal numbers of cells pretreated with microvesicles or control media. Cultures are established in plates precoated with 0.5% agarose and all colonies containing more than 4 cells are counted.

[2] = test system: VEGF production by U373 cells; test: Microvesicle transfer assay, VEGF production by U373 cells (ELISA); assay type: cell-based, human; conditions: microvesicles preincubated with CI-1033 (FIG. 4A)
Protocol: as §1

A431 tumours = test: Growth of A431 subcutaneous tumours in mice under daily CI-1033; assay type: in vivo; conditions: 20 mg/kg intraperitoneally, 7 days (FIG. 13A)
U373vIII tumours = test: Growth of U373vIII subcutaneous tumours in SCID mice under daily CI-1033; assay type: in vivo
Excerpt: U373 (human astrocytoma) cells, their stable variant U373vIII expressing Tet-off regulated EGFRvIII or EGFRvIII fused at C-terminus to green fluorescent protein (pEGFPN1) cassette (U373vIII-GFP) and A431 are maintained as described previously (Viloria-Petit et at Am. J. Pathology, 1997, 6:1523-1530; Yu et al., 2005, Blood, 105: 1734-1741) in medium containing microvesicle-depleted fetal bovine serum FBS. HUVEC cells are maintained in EGM-2 (Cambrex Bioscience, Walkesville, Md., USA). Microvesicles are collected from conditioned media or mouse plasma, as previously described (Yu & Rak, J. Thromb. Haemost, 2004, 2:2065-67; Al-Nedawi et al., 2005, Arterioscler. Thromb. Vasc. Biol., 25: 1744-1749). Briefly, media are subjected to two successive centrifugations at 300 g and 12000 g to eliminate cells and debris. Microvesicles are pelleted by ultracentrifugation for 2 hours at 100 000 g and quantified by protein content and analyzed for EGFR or EGFRvIII content. For scanning electron microscopy (SEM) the cells are grown on cover slips, fixed with 2.5% gluteraldehyde, stained with 1% OsO4, covered with gold and visualized using the JEOL 840A instrument. For in vivo analyses tumors are generated by injection of 1-10×10^6 U373vIII or U373 cells into immunodeficient (SCID) mice (Charles River, Canada). […]

[3] = test system: Akt phosphorylation in U373 cells; test: Microvesicle transfer assay, Akt phosphorylation in U373 acceptor cells; assay type: cell-based, human; conditions: microvesicles preincubated with annexin V (FIG. 3C)
Protocol: as §1

[4] = test system: VEGF promoter activity in U373 cells; test: Microvesicle transfer assay, VEGF promoter activity in U373 cells; assay type: cell-based, human; conditions: microvesicles pretreated with annexin V (FIG. 4B)
Protocol: as §1

[5] = test system: BcIxL and p27/Kip1 expression in U373 cells; test: Microvesicle transfer assay, BcIxL and p27/Kip1 expression in U373 cells (immunoblot); assay type: cell-based, human; conditions: annexin V-mediated blockade of microvesicle uptake
Protocol: as §1

Compound | Erk1/2 phosphorylation induced by U373vIII-derived microvesicles [1] | Release of VEGF induced by U373vIII microvesicles [2] | Tumour response (tumour size) (A431 tumours) | Formation/growth of U373vIII subcutaneous tumors (U373vIII tumours; SCID mice, daily doses of CI-1033 (FIG. 1D)) | Tumour response (tumour size) (U373vIII tumours; U373vIII tumours, 20 mg/kg intraperitoneally, daily, 7 days (FIG. 13A)) | Akt phosphorylation induced by U373vIII-derived microvesicles [3] | VEGF promoter activity stimulated by EGFRvIII containing microvesicles [4] | Decrease in levels of p27/Kip1 caused by EGFRvIII-containing microvesicles [5] | Increase in expression of BcIxL caused by EGFRvIII-containing microvesicles [5]
C=CC(=O)Nc1cc2c(Nc3ccc(F)c(Cl)c3)ncnc2cc1OCCCN1CCOCC1 [CI-1033] | markedly reduced | unable to induce this release of VEGF | responsive | susceptible to inhibition | responsive |  |  |  | 
annexin V: blocks exposed phosphatidylserine residues of microvesicles and thereby their uptake by U373 cells | abrogated |  |  |  |  | inhibitable | abrogated | inhibited | inhibited
